Assays:
[1] = target: T1, ΔF508-CFTR (Homo sapiens, UniProt P13569, DEL508-508); assay: CFTR cell surface levels using HRP-tagged ΔF508-CFTR expressing CFBE cells, in the presence of a co-corrector; type: cell-based; conditions: HRP-tagged ΔF508-CFTR expressing CFBE cells, in the presence of 3 μM co-corrector; for EC50: read-out: EC50
T1 construct: host or cells: CFBE41o-, doxycycline-inducible
Method in brief: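 Cells were seeded with 0.5 μg/mL doxycycline and held 68 h at 37 °C. Test compounds plus 3 μM co-corrector (final 0.1% DMSO) were then added for 20 h at 33 °C. Washed cells received HRP substrate, and luminescence was normalized between DMSO and 3 μM co-corrector controls.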

[2] = target: T1, ΔF508-CFTR; assay: CFTR cell surface levels using HRP-tagged ΔF508-CFTR expressing CFBE cells, intrinsic corrector capacity; type: cell-based; conditions: HRP-tagged ΔF508-CFTR CFBE41o- cells, compounds alone (intrinsic corrector capacity), 20 hours at 33° C.; for % Activation: positive control 3 μM corrector; for EC50: read-out: EC50
Method in brief: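 Here the cells express ΔF508-CFTR with horseradish peroxidase inserted in extracellular loop 4, so only rescued channel at the surface gives luminescent signal. Compounds act on their own, 20 h at the reduced temperature of 33 °C; values are percent activity relative to DMSO and a 3 μM corrector.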

T1 sequence (P13569 with tags, fused parts or gaps DEL508-508): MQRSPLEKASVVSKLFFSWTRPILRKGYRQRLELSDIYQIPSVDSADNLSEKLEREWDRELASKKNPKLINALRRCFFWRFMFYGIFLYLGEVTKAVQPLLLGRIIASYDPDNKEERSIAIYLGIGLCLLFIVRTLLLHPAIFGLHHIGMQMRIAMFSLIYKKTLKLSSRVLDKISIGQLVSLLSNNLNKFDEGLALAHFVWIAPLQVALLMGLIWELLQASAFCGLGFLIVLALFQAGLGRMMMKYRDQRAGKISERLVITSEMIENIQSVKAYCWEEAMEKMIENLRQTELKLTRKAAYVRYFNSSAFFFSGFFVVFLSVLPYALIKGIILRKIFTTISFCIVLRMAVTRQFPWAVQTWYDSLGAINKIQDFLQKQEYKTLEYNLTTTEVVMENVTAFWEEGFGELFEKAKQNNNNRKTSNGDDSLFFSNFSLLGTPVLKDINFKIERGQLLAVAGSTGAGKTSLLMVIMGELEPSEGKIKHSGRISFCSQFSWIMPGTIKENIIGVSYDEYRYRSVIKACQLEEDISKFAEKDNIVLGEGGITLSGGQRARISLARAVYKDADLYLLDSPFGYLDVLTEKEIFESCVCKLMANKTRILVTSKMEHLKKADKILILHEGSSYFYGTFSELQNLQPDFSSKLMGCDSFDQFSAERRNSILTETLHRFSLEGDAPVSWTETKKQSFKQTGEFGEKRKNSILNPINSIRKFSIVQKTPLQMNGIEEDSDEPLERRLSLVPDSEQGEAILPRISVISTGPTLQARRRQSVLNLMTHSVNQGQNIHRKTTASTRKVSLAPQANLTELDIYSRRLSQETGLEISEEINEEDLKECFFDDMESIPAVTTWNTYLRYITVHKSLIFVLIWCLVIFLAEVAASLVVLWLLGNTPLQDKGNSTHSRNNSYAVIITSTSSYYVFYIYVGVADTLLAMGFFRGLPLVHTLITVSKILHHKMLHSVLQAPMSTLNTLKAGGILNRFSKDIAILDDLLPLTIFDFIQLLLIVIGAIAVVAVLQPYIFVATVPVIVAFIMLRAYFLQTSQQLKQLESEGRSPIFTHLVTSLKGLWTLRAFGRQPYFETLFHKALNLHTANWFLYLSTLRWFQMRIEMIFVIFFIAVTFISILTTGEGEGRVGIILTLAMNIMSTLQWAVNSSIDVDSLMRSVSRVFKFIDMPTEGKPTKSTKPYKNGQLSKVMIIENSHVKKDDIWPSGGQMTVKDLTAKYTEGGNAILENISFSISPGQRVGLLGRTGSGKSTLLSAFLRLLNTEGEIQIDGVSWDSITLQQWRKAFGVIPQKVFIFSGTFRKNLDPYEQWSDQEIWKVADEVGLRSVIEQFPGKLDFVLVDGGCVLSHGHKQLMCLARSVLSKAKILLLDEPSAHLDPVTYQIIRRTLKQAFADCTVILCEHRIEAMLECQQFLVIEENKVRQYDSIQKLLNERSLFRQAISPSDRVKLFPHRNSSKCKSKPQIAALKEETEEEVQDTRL

| SMILES | % Activation [1] [%] | EC50 [1] [nM] | % Activation [2] [%] | EC50 [2] [nM] |
| --- | --- | --- | --- | --- |
| CC(C)c1nn(C2CCN(CC#N)C2)c2nc(C(=O)O)cc(-c3ccc(N4CCOCC4)cc3)c12 (centres unmarked) [compound 141, 1-[1-(cyanomethyl)pyrrolidin-3-yl]-4-[4-(morpholin-4-yl)phenyl]-3-(propan-2-yl)-1H-pyrazolo[3,4-b]pyridine-6-carboxylic acid] | 121.5 | > 10000 | 5.399 | > 10000 |
| COC(=O)N1CCC(n2nc(C(C)C)c3c(-c4ccc(N5CCOCC5)cc4)cc(C(=O)O)nc32)C1 (centres unmarked) [compound 142, 1-[1-(methoxycarbonyl)pyrrolidin-3-yl]-4-[4-(morpholin-4-yl)phenyl]-3-(propan-2-yl)-1H-pyrazolo[3,4-b]pyridine-6-carboxylic acid] | 135.2 | 5550 | 17.605 | > 10000 |
| COC1CCN(c2cc(C(=O)O)nc3c2c(C)nn3-c2ccccc2)CC1 [compound 143, 4-(4-methoxypiperidin-1-yl)-3-methyl-1-phenyl-1H-pyrazolo[3,4-b]pyridine-6-carboxylic acid] | 246.8 | 2420 | 109.45 | 2290 |
| Cc1nn(-c2ccccc2)c2nc(C(=O)O)cc(-c3ccc(NC4CCOCC4)cc3)c12 [compound 145, 3-methyl-4-{4-[(oxan-4-yl)amino]phenyl}-1-phenyl-1H-pyrazolo[3,4-b]pyridine-6-carboxylic acid] | 368.6 | 850 | 190.2 | 1430 |
| Cc1nn(-c2ccccc2)c2nc(C(=O)O)cc(N3CCN(S(C)(=O)=O)CC3)c12 [compound 146, 4-[4-(methanesulfonyl)piperazin-1-yl]-3-methyl-1-phenyl-1H-pyrazolo[3,4-b]pyridine-6-carboxylic acid] | 134.9 | > 10000 | 8.92 | > 10000 |
| CN(C)c1ncc(-c2cc(C(=O)O)nc3c2c(C(C)(C)C)nn3C2CCCCC2)cn1 [compound 147, 3-tert-butyl-1-cyclohexyl-4-[2-(dimethylamino)pyrimidin-5-yl]-1H-pyrazolo[3,4-b]pyridine-6-carboxylic acid] | 318.9 | 831 | 114.65 | 1050 |
| N#CCN1CC(c2nn(-c3ccccc3)c3nc(C(=O)O)cc(-c4ccc(N5CCOCC5)cc4)c23)C1 [compound 148, 3-[1-(cyanomethyl)azetidin-3-yl]-4-[4-(morpholin-4-yl)phenyl]-1-phenyl-1H-pyrazolo[3,4-b]pyridine-6-carboxylic acid] | 238.75 | 3340 | 79.64 | 3340 |
| CC(C)(C)c1nn(C2CCCCC2)c2nc(C(=O)O)cc(-c3cnc(N4CCOCC4)nc3)c12 [compound 149, 3-tert-butyl-1-cyclohexyl-4-[2-(morpholin-4-yl)pyrimidin-5-yl]-1H-pyrazolo[3,4-b]pyridine-6-carboxylic acid] | 296 | 449 | 112.95 | 653 |
| Cc1nn(-c2ccccc2)c2nc(C(=O)O)cc(N3CCCCC3=O)c12 [compound 150, 3-methyl-4-(2-oxopiperidin-1-yl)-1-phenyl-1H-pyrazolo[3,4-b]pyridine-6-carboxylic acid] | 115.3 | > 10000 | 6.341 | > 10000 |
| Cc1nn(-c2ccccc2)c2nc(C(=O)O)cc(OCC3CCCCC3)c12 [compound 152, 4-(cyclohexylmethoxy)-3-methyl-1-phenyl-1H-pyrazolo[3,4-b]pyridine-6-carboxylic acid] | 253.1 | 2090 | 75.36 | 2630 |
| Cc1nn(-c2ccccc2)c2nc(C(=O)O)cc(-c3ccc(N4CCC(O)C4)cc3)c12 (centres unmarked) [compound 153, 4-[4-(3-hydroxypyrrolidin-1-yl)phenyl]-3-methyl-1-phenyl-1H-pyrazolo[3,4-b]pyridine-6-carboxylic acid] | 386.85 | 1200 | 198.45 | 1530 |
| Cc1nn(-c2ccccc2)c2nc(C(=O)O)cc(-c3ccc(N4CCC5(CC4)COC5)cc3)c12 [compound 154, 3-methyl-4-[4-(2-oxa-7-azaspiro[3.5]nonan-7-yl)phenyl]-1-phenyl-1H-pyrazolo[3,4-b]pyridine-6-carboxylic acid] | 353.7 | 748 | 153.9 | 918 |
| Cc1nn(-c2ccccc2)c2nc(C(=O)O)cc(-c3ccc(N4CC[C@H](C#N)C4)cc3)c12 [compound 155, 4-{4-[(3S)-3-cyanopyrrolidin-1-yl]phenyl}-3-methyl-1-phenyl-1H-pyrazolo[3,4-b]pyridine-6-carboxylic acid] | 399.6 | 909 | 203.65 | 1350 |
| CC(=O)NC1CCN(c2ccc(-c3cc(C(=O)O)nc4c3c(C)nn4-c3ccccc3)cc2)C1 (centres unmarked) [compound 156, 4-[4-(3-acetamidopyrrolidin-1-yl)phenyl]-3-methyl-1-phenyl-1H-pyrazolo[3,4-b]pyridine-6-carboxylic acid] | 411.55 | 3160 | 175.5 | 3340 |
| CC(C)c1nn(-c2cccc(N3CCCC3)c2)c2nc(C(=O)O)cc(-c3ccc(N4CCOCC4)cc3)c12 [compound 157, 4-[4-(morpholin-4-yl)phenyl]-3-(propan-2-yl)-1-[3-(pyrrolidin-1-yl)phenyl]-1H-pyrazolo[3,4-b]pyridine-6-carboxylic acid] | 621 | 485 | 388.2 | 459 |
| Cc1nn(-c2ccccc2)c2nc(C(=O)O)cc(C(=O)N3CCCCC3)c12 [compound 158, 3-methyl-1-phenyl-4-(piperidine-1-carbonyl)-1H-pyrazolo[3,4-b]pyridine-6-carboxylic acid] | 112.2 | > 10000 | 1.521 | > 10000 |
| CC(C)c1nn(C2CCC(F)(F)CC2)c2nc(C(=O)O)cc(-c3ccc(N4CCOCC4)cc3)c12 [compound 159, 1-(4,4-difluorocyclohexyl)-4-[4-(morpholin-4-yl)phenyl]-3-(propan-2-yl)-1H-pyrazolo[3,4-b]pyridine-6-carboxylic acid] | 415.33 | 755 | 150.16 | 737 |
| CC(C)c1nn(-c2cccc(N3CC(C)(C)C3)c2)c2nc(C(=O)O)cc(-c3ccc(N4CCOCC4)cc3)c12 [compound 160, 1-[3-(3,3-dimethylazetidin-1-yl)phenyl]-4-[4-(morpholin-4-yl)phenyl]-3-(propan-2-yl)-1H-pyrazolo[3,4-b]pyridine-6-carboxylic acid] | 544.87 | 329 | 318.83 | 447 |
| CC(C)c1nn(C2CCCN(CC(F)(F)F)C2)c2nc(C(=O)O)cc(-c3ccc(N4CCOCC4)cc3)c12 (centres unmarked) [compound 161, 4-[4-(morpholin-4-yl)phenyl]-3-(propan-2-yl)-1-[1-(2,2,2-trifluoroethyl)piperidin-3-yl]-1H-pyrazolo[3,4-b]pyridine-6-carboxylic acid] | 333.87 | 795 | 111.83 | 921 |
| Cc1cccc(-n2nc(C(C)C)c3c(N4CCCCC4)cc(C(=O)O)nc32)c1 [compound 162, 1-(3-methylphenyl)-4-(piperidin-1-yl)-3-(propan-2-yl)-1H-pyrazolo[3,4-b]pyridine-6-carboxylic acid] | 399.73 | 808 | 147.97 | 992 |
| CC(C)c1nn([C@@H]2CCC[C@@H](OCc3ccccc3)C2)c2nc(C(=O)O)cc(-c3ccc(N4CCOCC4)cc3)c12 [compound 163, 1-[(1R,3R)-3-(benzyloxy)cyclohexyl]-4-[4-(morpholin-4-yl)phenyl]-3-(propan-2-yl)-1H-pyrazolo[3,4-b]pyridine-6-carboxylic acid] | 554.5 | 423 | 232.43 | 525 |
| COC1CN(c2cccc(-n3nc(C(C)C)c4c(-c5ccc(N6CCOCC6)cc5)cc(C(=O)O)nc43)c2)C1 [compound 164, 1-[3-(3-methoxyazetidin-1-yl)phenyl]-4-[4-(morpholin-4-yl)phenyl]-3-(propan-2-yl)-1H-pyrazolo[3,4-b]pyridine-6-carboxylic acid] | 608.5 | 375 | 359.9 | 675 |
| CC(C)c1nn(-c2cccc(N3CCC(F)C3)c2)c2nc(C(=O)O)cc(-c3ccc(N4CCOCC4)cc3)c12 (centres unmarked) [compound 165, 1-[3-(3-fluoropyrrolidin-1-yl)phenyl]-4-[4-(morpholin-4-yl)phenyl]-3-(propan-2-yl)-1H-pyrazolo[3,4-b]pyridine-6-carboxylic acid] | 533.35 | 515 | 350.4 | 794 |

— patent publication US9796711B2, “Substituted pyrazolo[3,4-b]pyridin-6-carboxylic acids and method of use” (AbbVie S.àr.l., priority 2015, dated 2017)
